Assay results published in article PMC9862588, “The Bi-Functional Paxilline Enriched in Skin Secretion of Tree Frogs (Hyla japonica) Targets the KCNK18 and BKCa Channels” (Toxins, 2023).

Target: T1, KCNK18 (Rattus norvegicus, UniProt Q6Q1P3)
T1 sequence (Q6Q1P3 1-405): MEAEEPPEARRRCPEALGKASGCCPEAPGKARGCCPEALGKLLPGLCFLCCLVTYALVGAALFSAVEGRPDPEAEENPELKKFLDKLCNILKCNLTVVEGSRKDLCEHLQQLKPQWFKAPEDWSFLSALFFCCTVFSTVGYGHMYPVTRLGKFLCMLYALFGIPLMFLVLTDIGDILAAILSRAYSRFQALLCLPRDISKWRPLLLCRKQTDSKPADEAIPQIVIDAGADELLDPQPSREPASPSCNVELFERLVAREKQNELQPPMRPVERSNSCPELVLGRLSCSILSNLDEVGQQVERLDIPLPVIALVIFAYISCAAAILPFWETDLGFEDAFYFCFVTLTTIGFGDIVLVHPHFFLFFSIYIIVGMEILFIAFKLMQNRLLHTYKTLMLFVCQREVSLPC
Assay: whole-cell patch clamp of transfected HEK293 cells, dose-response; loss of effect on F375 swap and F167A
Type: cell-based

Molecule CC(C)(O)[C@H]1O[C@H]2CC[C@@]3(C)[C@@](O)(CC[C@H]4Cc5c([nH]c6ccccc56)[C@@]43C)C2=CC1=O [PAX, Paxilline] has an IC50 of 4.13 ± 0.04 µM.
